Results reported in US9873680B2 (Gilead Sciences, Inc., priority 2014, dated 2018).
Like-named read-outs stand apart in the source and are kept apart here.

How the values were obtained:
[1] = Test B: Cytotoxicity Assay; assay type: cell-based; details: human, uninfected MT-4 cells, CellTiter-Glo
Description: Test B: Cytotoxicity Assay Compound cytotoxicity and the corresponding CC50 values was determined using the same protocol as described in the antiviral assay (Test A) except that uninfected cells were used.

[2] = test system: HIV-IIIb; assay: Test A: Antiviral Assay in MT4 Cells; assay type: cell-based, HIV-1; details: for inhibition at 2 µM: 2 μM drug concentration, read-out: Response at 2 μM (percent inhibition of virus-induced cell killing)
Method in brief: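 Readout was CellTiter-Glo luminescence after 10 min room-temperature lysis, taken 5 days after plating at 37 °C. The 2000 MT-4 cells per well, mixed 1 h beforehand with HIV-IIIb (m.o.i. 0.003), went straight onto the diluted compound.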

[3] = Human immunodeficiency virus 1, MT4, 120 h, 0.2 μM drug concentration, MT-4 cells infected with HIV-IIIb, 5 days, values normalized to 100%, average over time, read-out: % inhibition at 0.2 μM (percent inhibition of virus-induced cell killing)
[4] = Human immunodeficiency virus 1, IIIB, MT4, 0.2 μM drug concentration, comparison with previously published compounds, read-out: Response at 0.2 μM (percent inhibition of virus-induced cell killing)
[5] = Human immunodeficiency virus 1, IIIB, MT4, comparison with previously published compounds
[6] = Human immunodeficiency virus 1, IIIB, MT4, 120 h, read-out: % inhibition at 0.2 μM (percent inhibition of virus-induced cell killing)

SMILES	CC50 at 5 days [1]	inhibition at 0.2 µM [2, 3]	inhibition at 0.2 µM [2, 4]	inhibition at 2 µM [2, 5]	inhibition at 0.2 µM [2, 6]
Cn1nc(NS(C)(=O)=O)c2cccc(-c3ccc(C#CC4(O)CNC4)nc3[C@H](Cc3cc(F)cc(F)c3)NC(=O)Cn3nc(C(F)(F)F)c4c3C(F)(F)[C@@H]3C[C@H]43)c21 [Compound 22C, 2-((3bS,4aR)-5,5-difluoro-3-(trifluoromethyl)-3b,4,4a,5-tetrahydro-1H-cyclopropa[3,4]cyclopenta[1,2-c]pyrazol-1-yl)-N—((S)-2-(3,5-difluorophenyl)-1-(6-((3-hydroxyazetidin-3-yl)ethynyl)-3-(1-methyl-3-(methylsulfonamido)-1H-indazol-7-yl)pyridin-2-yl)ethyl)acetamide]	17.7 µM	93%			
Cn1nc(NS(C)(=O)=O)c2c(Cl)ccc(-c3ccc(C#C[C@]4(C)CNCCO4)nc3[C@H](Cc3cc(F)cc(F)c3)NC(=O)Cn3nc(C(F)F)c4c3C(F)(F)[C@@H]3C[C@H]43)c21 [Compound 84, N—((S)-1-(3-(4-chloro-1-methyl-3-(methylsulfonamido)-1H-indazol-7-yl)-6-(((R)-2-methylmorpholin-2-yl)ethynyl)pyridin-2-yl)-2-(3,5-difluorophenyl)ethyl)-2-((3bS,4aR)-3-(difluoromethyl)-5,5-difluoro-3b,4,4a,5-tetrahydro-1H-cyclopropa[3,4]cyclopenta[1,2-c]pyrazol-1-yl)acetamide]	6.9 µM	88%			
NC(=O)c1cc(-c2ccc(C#CC3(O)CCCCC3)nc2[C@H](Cc2cc(F)cc(F)c2)NC(=O)Cn2nc(C(F)(F)F)c3c2C(F)(F)[C@@H]2C[C@H]32)ccc1F [Compound 16, 5-(2-((S)-1-(2-((3bS,4aR)-5,5-difluoro-3-(trifluoromethyl)-3b,4,4a,5-tetrahydro-1H-cyclopropa[3,4]cyclopenta[1,2-c]pyrazol-1-yl)acetamido)-2-(3,5-difluorophenyl)ethyl)-6-((1-hydroxycyclohexyl)ethynyl)pyridin-3-yl)-2-fluorobenzamide]	3 µM	76%	76%	77%	
Cn1cnc(C(O)C#Cc2ccc(-c3ccc(Cl)c4c(NS(C)(=O)=O)nn(C)c34)c([C@H](Cc3cc(F)cc(F)c3)NC(=O)Cn3nc(C(F)(F)F)c4c3C(F)(F)[C@@H]3C[C@H]43)n2)c1 (stereo partly drawn) [Compound 56B, N-((1S)-1-(3-(4-chloro-1-methyl-3-(methylsulfonamido)-1H-indazol-7-yl)-6-(3-hydroxy-3-(1-methyl-1H-imidazol-4-yl)prop-1-yn-1-yl)pyridin-2-yl)-2-(3,5-difluorophenyl)ethyl)-2-((3bS,4aR)-5,5-difluoro-3-(trifluoromethyl)-3b,4,4a,5-tetrahydro-1H-cyclopropa[3,4]cyclopenta[1,2-c]pyrazol-1-yl)acetamide]	9.02 µM	84%			
CC(=O)N1CCO[C@](C)(C#Cc2ccc(-c3ccc(Cl)c4c(NS(C)(=O)=O)nn(C)c34)c([C@H](Cc3cc(F)cc(F)c3)NC(=O)Cn3nc(C(F)F)c4c3C(F)(F)[C@@H]3C[C@H]43)n2)C1 [Compound 86, N—((S)-1-(6-(((R)-4-acetyl-2-methylmorpholin-2-yl)ethynyl)-3-(4-chloro-1-methyl-3-(methylsulfonamido)-1H-indazol-7-yl)pyridin-2-yl)-2-(3,5-difluorophenyl)ethyl)-2-((3bS,4aR)-3-(difluoromethyl)-5,5-difluoro-3b,4,4a,5-tetrahydro-1H-cyclopropa[3,4]cyclopenta[1,2-c]pyrazol-1-yl)acetamide]	21.4 µM				93%
Cn1nc(NS(C)(=O)=O)c2cccc(-c3ccc(C#CC4(O)CCC4)nc3[C@H](Cc3cc(F)cc(F)c3)NC(=O)Cn3nc(C(F)(F)F)c4c3C(F)(F)[C@@H]3C[C@H]43)c21 [Compound 24D, 2-((3bS,4aR)-5,5-difluoro-3-(trifluoromethyl)-3b,4,4a,5-tetrahydro-1H-cyclopropa[3,4]cyclopenta[1,2-c]pyrazol-1-yl)-N—((S)-2-(3,5-difluorophenyl)-1-(6-((1-hydroxycyclobutyl)ethynyl)-3-(1-methyl-3-(methylsulfonamido)-1H-indazol-7-yl)pyridin-2-yl)ethyl)acetamide]	15.8 µM	100%			
Cn1nc(NS(C)(=O)=O)c2c(Cl)ccc(-c3ccc(C#CC4(O)CC5(COC5)C4)nc3[C@H](Cc3cc(F)cc(F)c3)NC(=O)Cn3nc(C(F)(F)F)c4c3C(F)(F)[C@@H]3C[C@H]43)c21 [Compound 51B, N—((S)-1-(3-(4-chloro-1-methyl-3-(methylsulfonamido)-1H-indazol-7-yl)-6-((6-hydroxy-2-oxaspiro[3.3]heptan-6-yl)ethynyl)pyridin-2-yl)-2-(3,5-difluorophenyl)ethyl)-2-((3bS,4aR)-5,5-difluoro-3-(trifluoromethyl)-3b,4,4a,5-tetrahydro-1H-cyclopropa[3,4]cyclopenta[1,2-c]pyrazol-1-yl)acetamide]	19.8 µM	89%			
Cn1nc(NS(C)(=O)=O)c2c(Cl)ccc(-c3ccc(C#CC4(O)COC(C)(C)OC4)nc3[C@H](Cc3cc(F)cc(F)c3)NC(=O)Cn3nc(C(F)(F)F)c4c3C(F)(F)[C@@H]3C[C@H]43)c21 [Compound 74, N—((S)-1-(3-(4-chloro-1-methyl-3-(methylsulfonamido)-1H-indazol-7-yl)-6-((5-hydroxy-2,2-dimethyl-1,3-dioxan-5-yl)ethynyl)pyridin-2-yl)-2-(3,5-difluorophenyl)ethyl)-2-((3bS,4aR)-5,5-difluoro-3-(trifluoromethyl)-3b,4,4a,5-tetrahydro-1H-cyclopropa[3,4]cyclopenta[1,2-c]pyrazol-1-yl)acetamide]	8.62 µM	77%			
Cc1c(-c2ccc(C#CC3(O)COC3)nc2[C@H](Cc2cc(F)cc(F)c2)NC(=O)Cn2nc(C(F)(F)F)c3c2C(F)(F)[C@@H]2C[C@H]32)ccc2n[nH]c(=O)n12 [Compound 21, 2-((3bS,4aR)-5,5-difluoro-3-(trifluoromethyl)-3b,4,4a,5-tetrahydro-1H-cyclopropa[3,4]cyclopenta[1,2-c]pyrazol-1-yl)-N—((S)-2-(3,5-difluorophenyl)-1-(6-((3-hydroxyoxetan-3-yl)ethynyl)-3-(5-methyl-3-oxo-2,3-dihydro-[1,2,4]triazolo[4,3-a]pyridin-6-yl)pyridin-2-yl)ethyl)acetamide]	11.7 µM	100%			
Cn1nc(NS(C)(=O)=O)c2c(Cl)ccc(-c3ccc(C#CC(C)(O)C4CC4)nc3[C@H](Cc3cc(F)cc(F)c3)NC(=O)Cn3nc(C(F)(F)F)c4c3C(F)(F)[C@@H]3C[C@H]43)c21 (stereo partly drawn) [Compound 59, N-((1S)-1-(3-(4-chloro-1-methyl-3-(methylsulfonamido)-1H-indazol-7-yl)-6-(3-cyclopropyl-3-hydroxybut-1-yn-1-yl)pyridin-2-yl)-2-(3,5-difluorophenyl)ethyl)-2-((3bS,4aR)-5,5-difluoro-3-(trifluoromethyl)-3b,4,4a,5-tetrahydro-1H-cyclopropa[3,4]cyclopenta[1,2-c]pyrazol-1-yl)acetamide]	10.2 µM	95%			
Cc1cncc(C#Cc2ncc(-c3ccc(F)c(C(N)=O)c3)c([C@H](Cc3cc(F)cc(F)c3)NC(=O)Cn3nc(C(F)(F)F)c4c3C(F)(F)[C@@H]3C[C@H]43)n2)c1 [Compound 19, 5-(4-((S)-1-(2-((3bS,4aR)-5,5-difluoro-3-(trifluoromethyl)-3b,4,4a,5-tetrahydro-1H-cyclopropa[3,4]cyclopenta[1,2-c]pyrazol-1-yl)acetamido)-2-(3,5-difluorophenyl)ethyl)-2-((5-methylpyridin-3-yl)ethynyl)pyrimidin-5-yl)-2-fluorobenzamide]	4.63 µM	83%	83%	88%	
Cn1cncc1C#Cc1ccc(-c2cccc3c(NS(C)(=O)=O)nn(C)c23)c([C@H](Cc2cc(F)cc(F)c2)NC(=O)Cn2nc(C(F)(F)F)c3c2C(F)(F)[C@@H]2C[C@H]32)n1 [Compound 33, 2-((3bS,4aR)-5,5-difluoro-3-(trifluoromethyl)-3b,4,4a,5-tetrahydro-1H-cyclopropa[3,4]cyclopenta[1,2-c]pyrazol-1-yl)-N—((S)-2-(3,5-difluorophenyl)-1-(6-((1-methyl-1H-imidazol-5-yl)ethynyl)-3-(1-methyl-3-(methylsulfonamido)-1H-indazol-7-yl)pyridin-2-yl)ethyl)acetamide]	12.5 µM	93%			
CCN1CCO[C@](C)(C#Cc2ccc(-c3ccc(Cl)c4c(NS(C)(=O)=O)nn(C)c34)c([C@H](Cc3cc(F)cc(F)c3)NC(=O)Cn3nc(C(F)F)c4c3C(F)(F)[C@@H]3C[C@H]43)n2)C1 [Compound 85, N—((S)-1-(3-(4-chloro-1-methyl-3-(methylsulfonamido)-1H-indazol-7-yl)-6-(((R)-4-ethyl-2-methylmorpholin-2-yl)ethynyl)pyridin-2-yl)-2-(3,5-difluorophenyl)ethyl)-2-((3bS,4aR)-3-(difluoromethyl)-5,5-difluoro-3b,4,4a,5-tetrahydro-1-cyclopropa[3,4]cyclopenta[1,2-c]pyrazol-1-yl)acetamide]	28.6 µM				100%
